In PMC7362391, “USP30 sets a trigger threshold for PINK1–PARKIN amplification of mitochondrial ubiquitylation” (Life Science Alliance, 2020):

Key:
USP6 = USP6 (Homo sapiens, UniProt P35125); test: DUB profiler selectivity panel (Ubiquigent) at […]; format: biochemical
USP30 = target: T1, USP30 (Homo sapiens, UniProt Q70CQ3); test: bio-layer interferometry (no significant off-rate); IC50 and kinact/KI with purified USP30 and ubiquitin-rhodamine; Ub-PA competition in lysate and cells; format: biochemical
T1 construct: BLI: residues 64-502Δ179-216 & 288-305 (biotinylated); activity assay: residues 57-517
T1 sequence (Q70CQ3 57-517): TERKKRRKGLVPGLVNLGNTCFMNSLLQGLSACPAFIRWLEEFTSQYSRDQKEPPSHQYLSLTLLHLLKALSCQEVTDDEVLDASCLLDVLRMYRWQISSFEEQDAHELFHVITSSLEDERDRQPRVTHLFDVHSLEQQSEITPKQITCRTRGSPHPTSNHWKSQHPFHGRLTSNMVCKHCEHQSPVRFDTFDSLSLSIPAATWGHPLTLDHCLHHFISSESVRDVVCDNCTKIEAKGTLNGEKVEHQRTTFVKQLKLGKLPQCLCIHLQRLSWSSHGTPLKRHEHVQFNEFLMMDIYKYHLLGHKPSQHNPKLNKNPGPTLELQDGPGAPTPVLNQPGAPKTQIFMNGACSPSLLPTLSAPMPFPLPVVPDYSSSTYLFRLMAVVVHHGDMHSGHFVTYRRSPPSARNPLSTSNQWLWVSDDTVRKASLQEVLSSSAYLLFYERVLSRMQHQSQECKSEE
Excerpt: bio-layer interferometry (no significant off-rate); IC50 and kinact/KI with purified USP30 and ubiquitin-rhodamine; Ub-PA competition in lysate and cells on USP30 | Bio-layer interferometry experiments show binding behaviour that is consistent with covalent modification of USP30

USP6, sequence (P35125 whole entry): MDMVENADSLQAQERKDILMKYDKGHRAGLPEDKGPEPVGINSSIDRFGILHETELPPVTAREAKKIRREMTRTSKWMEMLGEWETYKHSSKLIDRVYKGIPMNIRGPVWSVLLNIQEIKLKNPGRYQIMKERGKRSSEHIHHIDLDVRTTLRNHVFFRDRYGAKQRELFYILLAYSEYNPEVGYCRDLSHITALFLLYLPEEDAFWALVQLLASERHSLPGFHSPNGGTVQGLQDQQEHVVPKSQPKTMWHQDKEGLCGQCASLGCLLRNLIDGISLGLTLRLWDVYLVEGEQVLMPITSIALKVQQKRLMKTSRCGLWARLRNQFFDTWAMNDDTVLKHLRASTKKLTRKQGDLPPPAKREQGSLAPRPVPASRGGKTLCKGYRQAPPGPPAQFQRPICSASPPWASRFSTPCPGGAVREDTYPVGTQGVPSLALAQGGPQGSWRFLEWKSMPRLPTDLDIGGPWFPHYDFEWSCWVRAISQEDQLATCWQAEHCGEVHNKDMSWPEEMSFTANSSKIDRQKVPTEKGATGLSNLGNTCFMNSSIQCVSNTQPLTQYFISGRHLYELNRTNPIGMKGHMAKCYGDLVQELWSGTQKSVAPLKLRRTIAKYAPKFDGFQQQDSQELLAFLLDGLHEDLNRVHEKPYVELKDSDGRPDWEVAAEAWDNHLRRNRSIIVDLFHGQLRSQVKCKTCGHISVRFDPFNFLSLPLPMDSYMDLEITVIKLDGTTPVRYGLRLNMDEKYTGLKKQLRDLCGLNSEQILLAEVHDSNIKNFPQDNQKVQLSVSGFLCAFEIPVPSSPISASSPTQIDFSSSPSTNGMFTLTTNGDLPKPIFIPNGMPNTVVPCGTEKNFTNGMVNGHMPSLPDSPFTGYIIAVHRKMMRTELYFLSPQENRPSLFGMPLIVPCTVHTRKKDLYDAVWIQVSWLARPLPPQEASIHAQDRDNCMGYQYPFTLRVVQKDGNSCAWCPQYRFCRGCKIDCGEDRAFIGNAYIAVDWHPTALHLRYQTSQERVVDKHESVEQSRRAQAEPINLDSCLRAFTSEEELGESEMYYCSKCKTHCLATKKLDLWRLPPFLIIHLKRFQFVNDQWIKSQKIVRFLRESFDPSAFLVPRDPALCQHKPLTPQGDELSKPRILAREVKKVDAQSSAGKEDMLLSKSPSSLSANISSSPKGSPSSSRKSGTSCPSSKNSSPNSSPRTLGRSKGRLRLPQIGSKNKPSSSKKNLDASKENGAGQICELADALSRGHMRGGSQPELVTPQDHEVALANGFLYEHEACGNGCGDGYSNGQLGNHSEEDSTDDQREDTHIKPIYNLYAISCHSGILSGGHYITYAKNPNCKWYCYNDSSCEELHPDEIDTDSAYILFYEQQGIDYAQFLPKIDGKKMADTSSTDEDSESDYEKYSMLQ

IC50 (USP30): ~1 nM
Structure (SMILES): N#CN1CCC(NC(=O)c2cc(-c3ccccc3Oc3ccccc3)n[nH]2)C1 (centres unmarked) [FT385, FT3967385]
DUB profiler selectivity panel (Ubiquigent) at 2, 20 and 200 nM (USP6): Only one other family member, the plasma membrane–associated USP6, showed a significant degree of inhibition
